In PMC11199504, “New hemisynthetic derivatives of sphaeropsidin phytotoxins triggering severe endoplasmic reticulum swelling in cancer cells” (Scientific Reports, 2024):
Read-outs that look alike come from different tables or passages of the source.

Key:
Hs683 = assay: MTT colorimetric assay, Hs683; format: cell-based; settings: Homo sapiens, Hs 683; 72 h treatment; mean ± SEM; sensitive to apoptosis; read-out: IC50 determined by MTT assays, Hs683
Text: (§1) Cancer cell lines were obtained from either the European Collection of Cell Cultures (ECACC; Salisbury, UK) or the American Type Culture Collection (ATCC; Manassas, VA). The two glioma cell lines were the U373 (ECACC code 08061901) and Hs683 (ATCC HTB-138) cell lines. The carcinoma cell lines were the A549 non-small cell carcinoma cell line (ATCC code CCL 185) and the MCF-7 mammary breast carcinoma cell line (ATCC code HTB-22). The melanoma cell lines were the mouse B16F10 cells (ATCC code CRL-6475) and the human SKMEL-28 cells (ATCC code HTB-72). The ovarian cancer cell line A2780 and its cisplatin-resistant subline A2780cis were obtained from Sigma-Aldrich (St. Louis, MO, USA). Colon cancer HCT116 cells were obtained from ATCC (CCL-247) and the oxaliplatin-resistant subline HCT116/OxR established in the W. Berger lab[59]. The HeLa cell derivative KB-3-1 and the colchicine-selected, highly ABCB1-overexpressing subline KB-C-1 were generously donated by Dr. D. W. Shen, Bethesda, MD. RKOp53wt colon cancer cells together with the RKOp53KO (homozygous knock-out) subline[60] were generously provided by Dr. Vogelstein from John Hopkins University, Baltimore. The correct origin of all cell models was confirmed by STR during performance of the experiments. All cell lines were cultured in RPMI1640 culture medium supplemented with 10% heat-inactivated fetal bovine serum, 2% L-glutamine (0.6 mg/mL), 2% penicillin/streptomycin (200 IU/mL and 200 μg/mL) and 0.1 mg/mL gentamicin.
(§2) The MTT (3-(4,5-dimethylthiazol-2-yl)-2,5-diphenyl tetrazolium bromide) colorimetric assay has been conducted as described previously. Briefly, cells were seeded 24 h before their treatment with each compound for a period of 72 h. The concentrations tested ranged from 10 nM to 100 µM. Each assay was conducted in sextuplicates. The number of independent experiments is mentioned in the legend of the tables.

MCF7 = assay: MTT colorimetric assay, MCF7; format: cell-based; settings: Homo sapiens, 72 h treatment, mean ± SEM, sensitive to apoptosis, read-out: IC50 determined by MTT assays, MCF7
Text: as §1, §2

[1] = test system: A549, SKMEL-28, U373, MCF7, Hs683, B16F10; assay: MTT colorimetric assay, mean of the six cell lines; format: cell-based; settings: for IC50: mean over the six cell lines, 72 h treatment, read-out: IC50 determined by MTT assays, Mean; for activity in the cancer cell panel: MTT, alone
Text: as §1, §2

U373 = assay: MTT colorimetric assay, U373; format: cell-based; settings: Homo sapiens, U373 MG; 72 h treatment; mean ± SEM; resistant to apoptosis; read-out: IC50 determined by MTT assays, U373
Text: as §1, §2

A549 = assay: MTT colorimetric assay, A549; format: cell-based; settings: Homo sapiens, 72 h treatment, mean ± SEM of six replicates of one experiment (1: 7, 13: 6 independent experiments), resistant to apoptosis, read-out: IC50 determined by MTT assays, A549
Text: as §1, §2

B16F10 = assay: MTT colorimetric assay, B16F10; format: cell-based; settings: Mus musculus, B16-F10; 72 h treatment; mean ± SEM; sensitive to apoptosis; read-out: IC50 determined by MTT assays, B16F10
Text: as §1, §2

SKMEL-28 = assay: MTT colorimetric assay, SKMEL-28; format: cell-based; settings: Homo sapiens, SK-MEL-28; 72 h treatment; mean ± SEM; resistant to apoptosis; read-out: IC50 determined by MTT assays, SKMEL-28
Text: as §1, §2

[2] = test system: 60 cancer cell line panel; settings: NCI database value; ref NCI database; read-out: LC50 (NCI); cited from earlier work
[3] = test system: SKMEL-28 melanoma and U373 glioblastoma cells; assay: Morphological evaluation by phase contrast microscopy / videomicroscopy; format: cell-based, human; settings: videomicroscopy in SKMEL-28 cells
Protocol: For the morphological evaluation of the effects induced by compounds 1 and 13, 6 × 10^4 cells were seeded on glass coverslips placed in 6 well plates a minimum 24 h before their treatment. At the end of the incubation period with the treatment, coverslips were rinsed once in PBS buffer and directly mounted on slides to allow visualization of the cell with an Axio.Imager.M2 microscope (G X40 and G X100).

Hct116 = assay: MTT assay, Hct116 (parental sensitive); format: cell-based; settings: 72 h treatment; ± standard deviation; parental sensitive model; read-out: IC50 determined by MTT assays, Hct116
Text: as §1, §2
(§3) SI Table 1: IC50 determined by MTT assays. Mean concentration (± standard deviation) in µM required to
(§4) reduce the viability of cells by 50% after a 72 h treatment relative to the control.
(§5) Parental sensitive models Drug-resistant models

Hct116/OxR = assay: MTT assay, Hct116/OxR (oxaliplatin-resistant); format: cell-based; settings: 72 h treatment; ± standard deviation; drug-resistant model; read-out: IC50 determined by MTT assays, Hct116/OxR
Text: as §1, §2, §3, §4, §5

KB-3-1 = assay: MTT assay, KB-3-1 (parental sensitive); format: cell-based; settings: Homo sapiens, KB 3-1, 72 h, read-out: IC50 determined by MTT assays, KB-3-1
Text: as §1, §2, §3, §4, §5

KB-C-1 = assay: MTT assay, KB-C-1 (ABCB1-overexpressing); format: cell-based; settings: KBC-1, 72 h, read-out: IC50 determined by MTT assays, KB-C-1
Text: as §1, §2, §3, §4, §5

RKO/p53ko = assay: MTT assay, RKO/p53ko; format: cell-based; settings: 72 h treatment; ± standard deviation; drug-resistant model; read-out: IC50 determined by MTT assays, RKO/p53ko
Text: as §1, §2, §3, §4, §5

RKO/P53wt = assay: MTT assay, RKO/P53wt (parental sensitive); format: cell-based; settings: 72 h treatment; ± standard deviation; parental sensitive model; read-out: IC50 determined by MTT assays, RKO/P53wt
Text: as §1, §2, §3, §4, §5

A2780 = assay: MTT assay, A2780 (parental sensitive); format: cell-based; settings: 72 h treatment; ± standard deviation; parental sensitive model; read-out: IC50 determined by MTT assays, A2780
Text: as §1, §2, §3, §4, §5

A2780R = assay: MTT assay, A2780R (cisplatin-resistant); format: cell-based; settings: 72 h treatment; ± standard deviation; drug-resistant model; read-out: IC50 determined by MTT assays, A2780R
Text: as §1, §2, §3, §4, §5

IC50 (MCF7) [nM] | IC50 ([1]; 72 h) [nM] | IC50 (A549) [nM] | IC50 (B16F10) [nM] | IC50 (SKMEL-28) [nM] | SMILES | IC50 (Hs683) [nM] | IC50 (U373) [nM] | CC50 [2] [nM] | further results
> 100000 | > 94000 | > 100000 | 81300 ± 2420 | > 100000 | CC1(C=CCCCC(=O)O)C=C2C(=O)C3(O)OC(=O)C4(CCCC(C)(C)C34)C2(O)CC1 (stereo not drawn) [Compound 8] | 85300 ± 5250 | > 100000 |  | activity in the cancer cell panel [1]: inactive; IC50 [1]: > 94400 nM
470 ± 30 | 880 ± 160 | 630 ± 30 | 520 ± 20 | 1150 ± 110 | CCCCC=CC1(C)C=C2C(=O)C3(O)OC(=O)C4(CCCC(C)(C)C34)C2(O)CC1 (stereo not drawn) [Compound 9] | 1110 ± 140 | 1390 ± 150 |  | 
 |  |  |  |  | COc1ccc2c(c1)-c1nn(CCCN(C)C)c3ccc([N+](=O)[O-])c(c13)N2 [Pyrazolo acridine] |  |  | 23300 | 
6880 ± 260 | 5030 ± 820 | 4500 ± 70 | 2330 ± 290 | 5060 ± 580 | COC(=O)CCC=CC1(C)C=C2C(=O)C3(O)OC(=O)C4(CCCC(C)(C)C34)C2(O)CC1 (stereo not drawn) [Compound 7] | 3630 ± 150 | 7750 ± 310 |  | 
1950 ± 140 | 2100 ± 110 | 1760 ± 290 | 1880 ± 100 | 2290 ± 170 | C=CC1(C)C=C2C(=O)C3(OC(=O)c4ccccc4)OC(=O)C4(CCCC(C)(C)C34)C2(O)CC1 (stereo not drawn) [Compound 4] | 2500 ± 120 | 2190 ± 70 |  | delay in the cellular shrinkage versus SphA 1 [3]: ≥ 24 h
3060 ± 220 | 2540 ± 220 | 1610 ± 140 | 2520 ± 210 | 2290 ± 90 | CC1(C=Cc2ccccc2)C=C2C(=O)C3(O)OC(=O)C4(CCCC(C)(C)C34)C2(O)CC1 (stereo not drawn) [Compound 12] | 2720 ± 110 | 3060 ± 70 |  | 
 |  |  |  |  | CC/C(=C(\c1ccccc1)c1ccc(OCCN(C)C)cc1)c1ccccc1 [Tamoxifen] |  |  | 26000 | 
 |  |  |  |  | COc1cc(NS(C)(=O)=O)ccc1Nc1c2ccccc2nc2ccccc12 [Amsacrine] |  |  | 25000 | 
3720 ± 270 | 2750 ± 210 | 2400 ± 100 | 2600 ± 70 | 2560 ± 90 | C#CCCCC(=O)OC12OC(=O)C3(CCCC(C)(C)C13)C1(O)CCC(C)(C=C)C=C1C2=O (stereo not drawn) [Compound 3] | 2830 ± 130 | 2370 ± 90 |  | delay in the cellular shrinkage versus SphA 1 [3]: ≥ 24 h
 |  |  |  |  | CNC(=O)ON(C(C)=O)C(=O)NC [Caracemide] |  |  | 625000 | 
2090 ± 70 | 1700 ± 190 | 1920 ± 70 | 780 ± 90 | 1610 ± 110 | C=CC1(C)C=C2C(=O)C3(OC(=O)CCCCC(=O)O)OC(=O)C4(CCCC(C)(C)C34)C2(O)CC1 (stereo not drawn) [Compound 5] | 1960 ± 180 | 1820 ± 140 |  | 
 |  |  |  |  | O=C1[O][Pt]2([NH][C@@H]3CCCC[C@H]3[NH]2)[O]C1=O [oxaliplatin] |  |  |  | IC50 (Hct116): 600 ± 80 nM; IC50 (Hct116/OxR): 22100 ± 2300 nM
 |  |  |  |  | COc1cccc2c1C(=O)c1c(O)c3c(c(O)c1C2=O)C[C@@](O)(C(=O)CO)C[C@@H]3O[C@H]1C[C@H](N)[C@H](O)[C@H](C)O1 [doxorubicin] |  |  |  | IC50 (KB-3-1): 59 ± 30 nM; IC50 (KB-C-1): > 250000 nM
 |  |  |  |  | CC(=O)N(C)c1ccc(Nc2cc(C)nc3ccc4[nH]cnc4c23)cc1 [Acodazole] |  |  | 114000 | 
 |  |  |  |  | O=c1n(CC2CO2)c(=O)n(CC2CO2)c(=O)n1CC1CO1 (stereo not drawn) [Teroxirone] |  |  | 387000 | 
2890 ± 80 | 2670 ± 150 | 2000 ± 130 | 2550 ± 130 | 2770 ± 180 | CC1(C=CCCBr)C=C2C(=O)C3(O)OC(=O)C4(CCCC(C)(C)C34)C2(O)CC1 (stereo not drawn) [Compound 11] | 2990 ± 70 | 2810 ± 80 |  | 
 |  |  |  |  | N.N.[Cl][Pt][Cl] [cisplatin] |  |  |  | IC50 (RKO/p53ko): 3700 ± 1200 nM; IC50 (RKO/P53wt): 2000 ± 300 nM; IC50 (A2780): 1800 ± 90 nM; IC50 (A2780R): > 10000 nM
2480 ± 130 | 2640 ± 200 | 2660 ± 40 | 1810 ± 140 | 2740 ± 130 | COC(=O)CCCC=CC1(C)C=C2C(=O)C3(O)OC(=O)C4(CCCC(C)(C)C34)C2(O)CC1 (stereo not drawn) [Compound 6] | 3330 ± 100 | 2810 ± 80 |  | 
 |  |  |  |  | COc1ccc(C(=O)/C(Br)=C\C(=O)O)cc1 [Cytembena] |  |  | 802000 | 
5360 ± 580 | 3790 ± 540 | 2960 ± 120 | 2000 ± 120 | 3070 ± 100 | CC1(C=CCCCCBr)C=C2C(=O)C3(O)OC(=O)C4(CCCC(C)(C)C34)C2(O)CC1 (stereo not drawn) [Compound 10] | 4350 ± 270 | 5010 ± 180 |  | 

SMILES | IC50 (MCF7) [nM] | IC50 ([1]; 72 h) [nM] | IC50 (A549) [nM] | IC50 (B16F10) [nM] | IC50 (SKMEL-28) [nM] | IC50 (Hs683) [nM] | IC50 (U373) [nM] | CC50 [2] [nM] | further results
CC1(C=CCCc2ccc3ccc4cccc5ccc2c3c45)C=C2C(=O)C3(O)OC(=O)C4(CCCC(C)(C)C34)C2(O)CC1 (stereo not drawn) [Compound 24] | 1200 ± 200 | 1400 ± 340 | 1200 ± 200 | 98 ± 40 | 1300 ± 140 | 2400 ± 100 | 2200 ± 200 |  | 
C=CCCCc1ccc2ccc3cccc4ccc1c2c34 [Compound 14, reference compound] | 76000 ± 1550 | > 87300 | 78800 ± 1260 | 73100 ± 1320 | > 100000 | 96120 ± 500 | > 100000 |  | activity in the cancer cell panel [1]: inactive
CC1(C=CCCCCc2ccc3ccc4cccc5ccc2c3c45)C=C2C(=O)C3(O)OC(=O)C4(CCCC(C)(C)C34)C2(O)CC1 (stereo not drawn) [Compound 23] | 420 ± 30 | 490 ± 70 | 600 ± 20 | 270 ± 10 | 370 ± 10 | 640 ± 20 | 660 ± 20 |  | 
